Results as given in PMC4862498, “PI4 Kinase Is a Prophylactic but Not Radical Curative Target in Plasmodium vivax-Type Malaria Parasites” (Antimicrobial Agents and Chemotherapy, 2016).
Several values for one entry are separate records, joined by “and”; a condition that tells them apart may be missing. Equal entries are not always repeated. Entries after “also recorded” stand apart in the source; their conditions may differ.

Columns and labels:
[1] = tested on: P. cynomolgi sporozoite-infected rhesus macaques (hypnozoites, relapse); assay: Radical cure in P. cynomolgi sporozoite-infected rhesus macaques; assay type: in vivo, Plasmodium cynomolgi
Experimental: Sporozoites were harvested from P. cynomolgi-infected mosquitoes, washed with phosphate-buffered saline (PBS), and diluted to 100,000 sporozoites (spz)/ml in PBS. One-milliliter aliquots of sporozoites were prepared and injected into monkeys via intravenous (i.v.) injection.
Monkeys were treated according to the schedule shown in Table 1 (stratification of treatment groups is given in the supplemental material). During treatment, monkeys were weighed daily and received the compound via gavage, followed by gastric feeding (weight change during treatment is shown in Table S6 in the supplemental material). Monkeys in the prophylaxis groups (groups 691-proph and 599-proph) were treated ∼20 min after the i.v. sporozoite injection. The other monkeys were treated when all the monkeys in the experiment (except those in the prophylaxis group) were blood-stage patent (at day 11 p.i.). To kill the blood-stage parasites, all monkeys received a 5-day treatment of 7.5 mg/kg of body weight of chloroquine (CQ) (intramuscular [i.m.] injection), during compound dosing. KDU691 was formulated in 0.5% methylcellulose and 0.5% Tween 80 in water. LMV599 was formulated as a solid dispersion in a solution containing 5.6% (wt/wt) Tween 80–44.4% hydroxypropyl methylcellulose (HPMC) E3–38.9% Soluplus–11.1% vitamin E D-alphatocopheryl polyethylene glycol 1000 succinate (TPGS).
Parasitemia was closely monitored by thin-film analysis. Animals were trained to present for thigh pricks, which was followed by a reward. Thin-film slides were stained with 20% Giemsa stain, and at least 50 fields (±20,000 erythrocytes [RBCs]) were analyzed with a bright-field microscope (×1,200 magnification). As soon as all monkeys other than the prophylactic treatment groups were blood-stage positive, treatment was started as indicated above (Table 1). After the last day of compound dosing, the absence of blood-stage parasites was confirmed by thin smears. From day 23 p.i., monkeys were monitored daily for relapses. The KDU691 radical-cure (group 691-RC) treatment and control groups were monitored until the first relapse. The LMV599 control (group 599-C), radical-cure (group 599-RC), and PQ radical-cure (group PQ-RC) treatment groups were monitored until the second relapse or until day 100 p.i. (whichever came first). At the end of the study, monkeys that had relapsed received a 14-day primaquine treatment, with a final check 2 weeks after the last primaquine dose.
P. cynomolgi sporozoite production
A monkey was infected with […] P. cynomolgi M strain blood stage parasites, thawed from a first passage stock (i.e. blood stage parasites from a monkey infected with P. cynomolgi M strain sporozoites). For each batch of sporozoites needed, a single monkey was infected with P. cynomolgi blood stage parasites.
At day 11 and 12 post infection 9 mL infected blood was collected into a Lithium-heparinised tube. The blood was kept at 38°C and fed approximately 500 three to five days old female Anopheles stephensi mosquitoes Sind-Kasur strain Nijmegen (Nijmegen University Medical Centre St Radboud, Department of Medical Microbiology) using a glass feeder system as described by Ponnudurai et al.. After the second bleed, the monkey was cured by three daily intramuscular injections of 7.5 mg/kg chloroquine, monitored for parasite clearance 24 days after chloroquine treatment and returned to colony.
Mosquitoes were kept in climate chambers at 25 °C and 80% humidity and were fed 5% D -glucose on cotton pads daily. Seven days after feeding on the infected rhesus blood, oocyst numbers were determined in midguts of ten individuals, using 1% mercurochrome stain. Mosquitoes were given a second (uninfected) blood meal immediately afterwards to promote sporozoite maturation and invasion of the salivary glands. Sporozoites were isolated from the P. cynomolgi infected mosquitoes around day16 after the infected blood meal.
In vivo monkey infection and treatment procedures […]

[2] = tested on: Plasmodium berghei luciferase sporozoites; design: method as in PMID 25147620; conditions: single dose of 7.5 mg/kg after sporozoite infection; cited from earlier work

CNC(=O)c1ccc(-c2cnc3cnc(C(=O)N(C)c4ccc(Cl)cc4)cn23)cc1 [KDU691]
radical-cure outcome ([1]; five daily oral doses of 20 mg/kg from day 11 p.i., 20 mg/kg): did not prevent relapse; also recorded: none of the animals treated with KDU691 were radically cured
Day p.i. to first relapse ([1]; group 691-RC, 20 mg/kg oral for 5 days from day 11 p.i. plus CQ, individual monkeys): 31 day p.i. and 32 day p.i.
day p.i. to first relapse, group mean ± SD ([1]; group 691-RC, 20 mg/kg oral for 5 days from day 11 p.i., control 25 ± 1.4): 31.8 ± 0.5 days p.i.
delay to relapse compared to the control group ([1]; group 691-RC, 20 mg/kg oral for 5 days, P = 0.00912, log rank test): 6.8 days
Day p.i. to primary parasitemia ([1]; group 691-RC, individual monkeys, baseline, before dosing started at day 11 p.i.): 9 day p.i.
causal prophylactic protection in mice [2]: complete protection
